Assay: xn = mol fraction of the nth substance listed
Details: Gas, isochoric method

C=C(F)C(F)(F)F [2,3,3,3-tetrafluoro-1-propene] + CC(C)C
Details	specific volume [m3/kg]
303.15 K, 163.5 kPa, x2 = 0.472	0.1698
303.15 K, 180.2 kPa, x2 = 0.606	0.1663
303.15 K, 246.7 kPa, x2 = 0.234	0.0939
303.15 K, 260.6 kPa, x2 = 0.772	0.1279
303.15 K, 269.3 kPa, x2 = 0.4	0.0942
308.15 K, 166.4 kPa, x2 = 0.472	0.1699
308.15 K, 183.3 kPa, x2 = 0.606	0.1664
308.15 K, 251.2 kPa, x2 = 0.234	0.094
308.15 K, 265.4 kPa, x2 = 0.772	0.1279
308.15 K, 274.3 kPa, x2 = 0.4	0.0942
308.15 K, 426.8 kPa, x2 = 0.85	0.0797
313.15 K, 169.2 kPa, x2 = 0.472	0.1699
313.15 K, 186.5 kPa, x2 = 0.606	0.1664
313.15 K, 255.6 kPa, x2 = 0.234	0.094
313.15 K, 270.2 kPa, x2 = 0.772	0.1279
313.15 K, 279.2 kPa, x2 = 0.4	0.0943
313.15 K, 435.6 kPa, x2 = 0.85	0.0797
318.15 K, 172.1 kPa, x2 = 0.472	0.17
318.15 K, 189.7 kPa, x2 = 0.606	0.1665
318.15 K, 260.1 kPa, x2 = 0.234	0.094
318.15 K, 275.1 kPa, x2 = 0.772	0.1279
318.15 K, 284.2 kPa, x2 = 0.4	0.0943
318.15 K, 444.2 kPa, x2 = 0.85	0.0797
323.15 K, 174.7 kPa, x2 = 0.472	0.17
323.15 K, 192.9 kPa, x2 = 0.606	0.1665
323.15 K, 264.6 kPa, x2 = 0.234	0.094
323.15 K, 279.9 kPa, x2 = 0.772	0.128
323.15 K, 289.2 kPa, x2 = 0.4	0.0943
323.15 K, 452.8 kPa, x2 = 0.85	0.0797
328.15 K, 177.5 kPa, x2 = 0.472	0.17
328.15 K, 196 kPa, x2 = 0.606	0.1665
328.15 K, 269 kPa, x2 = 0.234	0.094
328.15 K, 284.6 kPa, x2 = 0.772	0.128
328.15 K, 294.1 kPa, x2 = 0.4	0.0943
328.15 K, 461.2 kPa, x2 = 0.85	0.0797
333.15 K, 180.3 kPa, x2 = 0.472	0.1701
333.15 K, 199.2 kPa, x2 = 0.606	0.1666
333.15 K, 273.4 kPa, x2 = 0.234	0.0941
333.15 K, 289.4 kPa, x2 = 0.772	0.128
333.15 K, 299 kPa, x2 = 0.4	0.0944
333.15 K, 469.7 kPa, x2 = 0.85	0.0798
338.15 K, 183.1 kPa, x2 = 0.472	0.1701
338.15 K, 202.3 kPa, x2 = 0.606	0.1666
338.15 K, 277.8 kPa, x2 = 0.234	0.0941
338.15 K, 294.2 kPa, x2 = 0.772	0.1281
338.15 K, 303.9 kPa, x2 = 0.4	0.0944
338.15 K, 477.9 kPa, x2 = 0.85	0.0798
343.15 K, 185.9 kPa, x2 = 0.472	0.1701
343.15 K, 205.5 kPa, x2 = 0.606	0.1666
343.15 K, 282.2 kPa, x2 = 0.234	0.0941
343.15 K, 298.9 kPa, x2 = 0.772	0.1281
343.15 K, 308.8 kPa, x2 = 0.4	0.0944
343.15 K, 486.3 kPa, x2 = 0.85	0.0798
348.15 K, 188.7 kPa, x2 = 0.472	0.1702
348.15 K, 208.6 kPa, x2 = 0.606	0.1667
348.15 K, 286.6 kPa, x2 = 0.234	0.0941
348.15 K, 303.6 kPa, x2 = 0.772	0.1281
348.15 K, 313.5 kPa, x2 = 0.4	0.0944
348.15 K, 494.6 kPa, x2 = 0.85	0.0798
353.15 K, 191.5 kPa, x2 = 0.472	0.1702
353.15 K, 211.8 kPa, x2 = 0.606	0.1667
353.15 K, 291 kPa, x2 = 0.234	0.0941
353.15 K, 308.1 kPa, x2 = 0.772	0.1281
353.15 K, 318.3 kPa, x2 = 0.4	0.0944
353.15 K, 502.9 kPa, x2 = 0.85	0.0798
358.15 K, 194.3 kPa, x2 = 0.472	0.1703
358.15 K, 214.9 kPa, x2 = 0.606	0.1667
358.15 K, 295.4 kPa, x2 = 0.234	0.0942
358.15 K, 312.6 kPa, x2 = 0.772	0.1282
358.15 K, 323.2 kPa, x2 = 0.4	0.0945
358.15 K, 511.2 kPa, x2 = 0.85	0.0798
363.15 K, 197.1 kPa, x2 = 0.472	0.1703
363.15 K, 218 kPa, x2 = 0.606	0.1668
363.15 K, 299.8 kPa, x2 = 0.234	0.0942
363.15 K, 328.1 kPa, x2 = 0.4	0.0945
363.15 K, 519.5 kPa, x2 = 0.85	0.0799
368.15 K, 200.1 kPa, x2 = 0.472	0.1703
368.15 K, 221.1 kPa, x2 = 0.606	0.1668
368.15 K, 304.1 kPa, x2 = 0.234	0.0942
368.15 K, 332.9 kPa, x2 = 0.4	0.0945
368.15 K, 527.7 kPa, x2 = 0.85	0.0799
373.15 K, 202.9 kPa, x2 = 0.472	0.1704
373.15 K, 224.3 kPa, x2 = 0.606	0.1669
373.15 K, 308.5 kPa, x2 = 0.234	0.0942
373.15 K, 337.7 kPa, x2 = 0.4	0.0945
373.15 K, 535.9 kPa, x2 = 0.85	0.0799
378.15 K, 205.7 kPa, x2 = 0.472	0.1704
378.15 K, 227.5 kPa, x2 = 0.606	0.1669
378.15 K, 313 kPa, x2 = 0.234	0.0942
378.15 K, 342.6 kPa, x2 = 0.4	0.0945
378.15 K, 544.1 kPa, x2 = 0.85	0.0799
383.15 K, 208.5 kPa, x2 = 0.472	0.1704
383.15 K, 230.6 kPa, x2 = 0.606	0.1669
383.15 K, 317.4 kPa, x2 = 0.234	0.0943
383.15 K, 347.4 kPa, x2 = 0.4	0.0946
383.15 K, 552.4 kPa, x2 = 0.85	0.0799
